Measured values published in patent US20100093661A1, “COMPOSITION COMPRISING CHITOSAN AND AN ACIDIC DRUG FOR ORAL CONTROLLED RELEASE” (The Jordanian Pharmaceutical Manufacturing Co., priority 2007, published 2010).

Columns and labels:
Water solubility = type: physicochemical
[1] = single 200-mg oral dose, fasting subjects; cited from earlier work

| SMILES | water solubility (Water solubility) | time of peak plasma levels after administration [1] |
| --- | --- | --- |
| CC(=O)O.CC(C)Cc1ccc(C(C)C(=O)O)cc1 (centres unmarked) [Ibuprofen ethanoate] | water insoluble |  |
| CC(C)Cc1ccc(C(C)C(=O)O)cc1 (centres unmarked) [Ibuprofen] |  | about 1 hr |
